Here are results for two molecules from US20140242609A1, “Diagnosis and treatment of kidney stones, methods and compositions therefor” (Washington University, priority 2013, published 2014).

Data set [1] concerns claudin-14 promoter. Description: lacZ reporter of endogenous claudin-14 promoter activity in claudin-14+/lacZ mice. It is filed as in vivo, mouse. The protocol:
The inventors also sought for alternative mechanisms for claudin-14 gene regulation. Because the claudin-14 KO mouse was generated with a lacZ reporter gene replacing the last exon of claudin-14 gene (including the coding region and 3″-UTR) (Ben-Yosef et al., 2003), the expression of lacZ gene would provide a faithful measurement for endogenous claudin-14 promoter activity regardless of any microRNA based regulation. The claudin-14^+/lacZ mice were treated with cinacalcet or NPS2143 as described for WT mice.
The inventors explored alternative mechanisms for claudin-14 gene regulation. Because the claudin-14 KO mouse was generated with a lacZ reporter gene replacing the last exon of claudin-14 gene (including the coding region and 3′-UTR; Ben-Yosef, T., et al., 2003) the expression of lacZ gene would provide a faithful measurement for endogenous claudin-14 promoter activity regardless of any microRNA based regulation. The claudin-14^+/lacZ mice were treated with cinacalcet or NPS2143 as described for WT mice.

Data set [2] in a line: circulating hormonal levels in SAHA treated mice (ELISA). Type of data set: in vivo, mouse. Conditions: SAHA treatments versus vehicle. Here is the method:
FIG. 24 illustrates circulating hormonal levels in SAHA versus vehicle treated mouse kidneys. Serum PTH (A), 1,25-(OH)2-vitD3 (B) and FGF23 (C) levels were measured with ELISA and shown as mean±SEM, n=5.

Data set [3] in a line: 24 hr urinalysis in metabolic cages, plasma and urine electrolytes. Type of data set: in vivo, mouse. Here is the method:
Age (9-10 weeks old) and sex (male) matched wild-type and CLDN14 KO mice were housed individually in metabolic cages (Harvard Apparatus) with free access to water and food for 24 hr. Urine was collected under mineral oil. The plasma and urine Ca^++ and Mg^2+ levels were determined with atomic flame absorption spectrophotometer (PerkinElmer). The plasma (P) and urine (U) electrolyte levels were determined with the Roche Cobas clinical analyzer (Roche Diagnostics). […] The fractional excretion of electrolytes was calculated using the following equation: FEion=V×Uion/(GFR×Pion), where GFR was calculated according to the clearance rate of creatinine (GFR=V×Ucreatinine/Pcreatinine).
(§1) Mice were housed individually in metabolic cages (Harvard Apparatus) with free access to water and food for 24 hr. Urine was collected under mineral oil. The plasma and urine Ca^++ and Mg^++ levels were determined with atomic flame absorption spectrophotometer (PerkinElmer). The creatinine levels were measured with an enzymatic method that was independent of plasma chromogens.

The nature of data set [4]: urinary Ca++ and Mg++ levels (ratios to creatinine) in spot urine collections. Type of data set: in vivo, mouse. Conditions: 5 mg/kg BW−1. Here is the method: as §1, with “chromogens. (Gong Y, et al., 2013) The fractional excretion of electrolytes was calculated using the following equation FEion=V×Uion/(GFR×Pion), where GFR was calculated according to the clearance rate of creatinine (GFR=V×Ucreatinine/Pcreatinine).” for “chromogens.”
In these experiments, the inventors gave wild-type C57BL/6 mice SAHA treatments at 5 mg/kg BW^−1 and traced urinary Ca^++ and Mg^++ levels (as ratios to creatinine) from 4 hr to 12 hr in spot urine collections. Consistent with the downregulation of CLDN14 gene expression at 4 hrs, the urinary excretion of Ca^++ and Mg^++ was reduced by 47% and 40% respectively (p<0.01, n=5 versus vehicle, FIG. 19A-B).

Data set [5] concerns CLDN16, CLDN19, TRPV5, TRPM6, NKCC2, ROMK, TSC, Klotho and VDR. The data set is described as follows: gene expression of renal ion transporters in SAHA treated mouse kidneys (real-time PCR). It is filed as in vivo. Conditions: SAHA versus vehicle. The text has this:
FIG. 25 illustrates gene expression analyses of renal ion transporters in SAHA versus vehicle treated mouse kidneys by real-time PCR. Values are shown as fold ratios relative to the vehicle level (as mean±SEM; n=5).
Total RNA including microRNA was extracted using Trizol (Invitrogen). Cellular mRNA was reverse transcribed using the Superscript-III kit (Invitrogen), followed by real-time PCR amplification using SYBR Green PCR Master Mix (Bio-Rad) and Eppendorf Realplex2S system. The design of claudin-14 primers was described before by Gong et al., 2012. The design of pri-miRNA primers and ChIP primers was according to Gong et al., 2013. Results were expressed as 2^−ΔCt values with ΔCT=Ctgene−Ctβ-actin.
A general note: In qPCR the cycle at which signal appears reflects the starting amount.

For data set [6] the following is noted: cited from earlier work.
The mark [7] stands for this setting: WT pre-treated with furosemide 40 mg/kg BW−1 per day, Veh + Furo = furosemide alone.

`O=C(CCCCCCC(=O)Nc1ccccc1)NO` [SAHA, Suberanilohydroxamic acid]: the “lacZ mRNA levels” value in data set [1] (25 mg/kg BW−1, 4 hrs) is listed as “no significant change”. Moreover, in data set [2], the “circulating 1,25-(OH)2-vitD3 levels” value is given as “None of these hormones changed”, the “circulating FGF23 levels” value is reported as “None of these hormones changed” and the “circulating PTH levels” value is recorded as “None of these hormones changed”. In data set [3] (CLDN14 KO, same SAHA regimen), this molecule returned an ECa of 1.20 ± 0.24 ug/24 hr · g, an EMg of 6.50 ± 0.55 ug/24 hr · g, an FECa of 0.45 ± 0.07% and an FEMg of 9.90 ± 0.83%. In data set [3] (CLDN14 KO, same SAHA regimen), the PCa came out at 11.13 ± 0.34 mg/dL and the PMg is recorded as 2.76 ± 0.05 mg/dL. Further, in data set [3] (setting [7]), the ECa was 3.37 ± 0.75 ug/24 hr · g, the EMg is 8.34 ± 2.15 ug/24 hr · g, the FECa came out at 1.97 ± 0.38% and the FEMg worked out at 22.50 ± 6.40%. In addition, in data set [3] (setting [7]), the PCa stood at 9.95 ± 0.41 mg/dL and the PMg is recorded as 2.20 ± 0.06 mg/dL. In addition, in data set [3] (WT, SAHA 10 mg/kg BW−1 per day), the ECa is reported as 0.72 ± 0.26^□ ug/24 hr · g, the EMg is recorded as 3.16 ± 0.80^□□ ug/24 hr · g, the FECa is on record as 0.27 ± 0.08^□□ % and the FEMg is recorded as 6.06 ± 1.71^□□ %. In addition, in data set [3] (WT, SAHA 10 mg/kg BW−1 per day), the PCa is recorded as 11.38 ± 0.44^□ mg/dL and the PMg was 2.71 ± 0.12^□ mg/dL. The “effect of chronic treatment on calcemia” value in data set [3] (chronic SAHA treatment) is “mild hypercalcemia”. For the same molecule, in data set [4] (4 hrs, versus vehicle), the “urinary excretion of Ca++, reduction” value amounted to 47% and the “urinary excretion of Mg++, reduction” value is recorded as 40%. The “effects on urinary Ca++ and Mg++ levels” value in data set [4] (after 12 hrs) is given as “completely lost”. For the same molecule, in data set [4] (by 8 hrs), the “urinary Ca++ excretion” value is on record as “hypocalciuria was pronounced” and the urinary magnesium excretion entry is “recovered to the vehicle level”. The “expression levels of other major Ca++/Mg++ transporters from the kidney” value in data set [5] is “nor did the inventors find any significant change”.

For the molecule `C[C@@H](NCCCc1cccc(C(F)(F)F)c1)c1cccc2ccccc12` [cinacalcet], the “lacZ mRNA levels” value in data set [1] (claudin-14+/lacZ mouse kidneys, single-dose 30 mg/kg BW−1, 2 hrs) is on record as “no change”. The β-galactosidase activity result in data set [1] (isolated TALH cells of claudin-14+/lacZ mice, single-dose 30 mg/kg BW−1, 2 hrs) was “no change”. Also, the “time to maximal serum concentration after oral administration” value in data set [6] (oral) was 1.5 to 3 h. Moreover, the “half-life of absorbed cinacalcet” value in data set [6] (serum) was 30 to 40 h.
